Measurements reported in patent US20240342117A1, “Inhalable Epinephrine Formulation” (De Motu Cordis Pty Ltd, priority 2022, published 2024).

Conditions: over 4 weeks of storage

tendency to agglomerate: naturally tends to agglomerate
SMILES: CNC[C@H](O)c1ccc(O)c(O)c1 [micronized epinephrine bitartrate, epinephrine bitartrate]
